Measurements reported in PubChem BioAssay AID328 (DTP/NCI, 2004).
Inconclusive results and toxic doses are left out. Rule for the calls: active = survival T/C of 150% or more; inactive = T/C below 125% in these data.

Test system: BDF1 mice, P388 leukemia ip, median survival T/C
Assay: NCI In Vivo Anticancer Drug Screen. Data for tumor model P388 Leukemia (intraperitoneal) in B6D2F1 (BDF1) mice
Conditions: endpoint: median survival time, higher = longer survival
Summary of the method: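 Reported as T/C, where T is the survival measurement in dosed animals and C the same measurement in vehicle controls.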

Measured: T/C

CCc1nc(N)nc(N)c1-c1ccc(Cl)cc1
inactive: dose: 2.0 mg/kg/injection, schedule: Q03HX008 (ip), vehicle: Klucel (hydroxypropylcellulose) (HPC) 100 % of control | dose: 2.0 mg/kg/injection, schedule: Q03HX016 (ip), vehicle: Klucel (hydroxypropylcellulose) (HPC) 91 % of control | dose: 2.0 mg/kg/injection, schedule: Q03HX024 (ip), vehicle: Klucel (hydroxypropylcellulose) (HPC) 91 % of control | dose: 4.0 mg/kg/injection, schedule: Q01DX009 (ip), vehicle: Klucel (hydroxypropylcellulose) (HPC) 95 % of control | dose: 4.0 mg/kg/injection, schedule: Q01DX009 (sc), vehicle: Klucel (hydroxypropylcellulose) (HPC) 100 % of control | dose: 4.0 mg/kg/injection, schedule: Q03HX008 (ip), vehicle: Klucel (hydroxypropylcellulose) (HPC) 95 % of control | dose: 4.0 mg/kg/injection, schedule: Q03HX016 (ip), vehicle: Klucel (hydroxypropylcellulose) (HPC) 100 % of control | dose: 4.0 mg/kg/injection, schedule: Q03HX024 (ip), vehicle: Klucel (hydroxypropylcellulose) (HPC) 91 % of control | dose: 8.0 mg/kg/injection, schedule: Q01DX009 (ip), vehicle: Klucel (hydroxypropylcellulose) (HPC) 91 % of control | dose: 8.0 mg/kg/injection, schedule: Q01DX009 (sc), vehicle: Klucel (hydroxypropylcellulose) (HPC) 100 % of control | dose: 8.0 mg/kg/injection, schedule: Q01DX010 (ip), vehicle: saline 100 % of control | dose: 8.0 mg/kg/injection, schedule: Q03HX008 (ip), vehicle: Klucel (hydroxypropylcellulose) (HPC) 100 % of control | dose: 8.0 mg/kg/injection, schedule: Q03HX016 (ip), vehicle: Klucel (hydroxypropylcellulose) (HPC) 91 % of control | dose: 8.0 mg/kg/injection, schedule: Q03HX024 (ip), vehicle: Klucel (hydroxypropylcellulose) (HPC) 95 % of control | dose: 16.0 mg/kg/injection, schedule: Q01DX001 (ip), vehicle: Klucel (hydroxypropylcellulose) (HPC) 100 % of control | dose: 16.0 mg/kg/injection, schedule: Q01DX001 (oral), vehicle: Klucel (hydroxypropylcellulose) (HPC) 100 % of control | dose: 16.0 mg/kg/injection, schedule: Q01DX001 (sc), vehicle: Klucel (hydroxypropylcellulose) (HPC) 100 % of control | dose: 16.0 mg/kg/injection, schedule: Q01DX009 (ip), vehicle: Klucel (hydroxypropylcellulose) (HPC) 91 % of control | dose: 16.0 mg/kg/injection, schedule: Q01DX009 (oral), vehicle: Klucel (hydroxypropylcellulose) (HPC) 104 % of control | dose: 16.0 mg/kg/injection, schedule: Q01DX009 (sc), vehicle: Klucel (hydroxypropylcellulose) (HPC) 100 % of control | dose: 16.0 mg/kg/injection, schedule: Q01DX010 (ip), vehicle: saline 95 % of control | dose: 16.0 mg/kg/injection, schedule: Q03HX008 (ip), vehicle: Klucel (hydroxypropylcellulose) (HPC) 91 % of control | dose: 16.0 mg/kg/injection, schedule: Q03HX016 (ip), vehicle: Klucel (hydroxypropylcellulose) (HPC) 100 % of control | dose: 16.0 mg/kg/injection, schedule: Q03HX024 (ip), vehicle: Klucel (hydroxypropylcellulose) (HPC) 100 % of control | dose: 16.0 mg/kg/injection, schedule: Q04DX003 (ip), vehicle: Klucel (hydroxypropylcellulose) (HPC) 100 % of control | dose: 16.0 mg/kg/injection, schedule: Q08DX002 (ip), vehicle: Klucel (hydroxypropylcellulose) (HPC) 100 % of control | dose: 32.0 mg/kg/injection, schedule: Q01DX001 (ip), vehicle: Klucel (hydroxypropylcellulose) (HPC) 100 % of control | dose: 32.0 mg/kg/injection, schedule: Q01DX001 (oral), vehicle: Klucel (hydroxypropylcellulose) (HPC) 90 % of control | dose: 32.0 mg/kg/injection, schedule: Q01DX001 (sc), vehicle: Klucel (hydroxypropylcellulose) (HPC) 104 % of control | dose: 32.0 mg/kg/injection, schedule: Q01DX009 (ip), vehicle: Klucel (hydroxypropylcellulose) (HPC) 95 % of control | dose: 32.0 mg/kg/injection, schedule: Q01DX009 (sc), vehicle: Klucel (hydroxypropylcellulose) (HPC) 100 % of control | dose: 32.0 mg/kg/injection, schedule: Q01DX010 (ip), vehicle: saline 90 % of control | dose: 32.0 mg/kg/injection, schedule: Q04DX003 (ip), vehicle: Klucel (hydroxypropylcellulose) (HPC) 100 % of control | dose: 32.0 mg/kg/injection, schedule: Q08DX002 (ip), vehicle: Klucel (hydroxypropylcellulose) (HPC) 95 % of control | dose: 64.0 mg/kg/injection, schedule: Q01DX001 (ip), vehicle: Klucel (hydroxypropylcellulose) (HPC) 100 % of control | dose: 64.0 mg/kg/injection, schedule: Q01DX001 (oral), vehicle: Klucel (hydroxypropylcellulose) (HPC) 104 % of control | dose: 64.0 mg/kg/injection, schedule: Q01DX001 (sc), vehicle: Klucel (hydroxypropylcellulose) (HPC) 109 % of control | dose: 64.0 mg/kg/injection, schedule: Q01DX009 (ip), vehicle: Klucel (hydroxypropylcellulose) (HPC) 116 % of control | dose: 64.0 mg/kg/injection, schedule: Q01DX009 (sc), vehicle: Klucel (hydroxypropylcellulose) (HPC) 113 % of control | dose: 64.0 mg/kg/injection, schedule: Q01DX010 (ip), vehicle: saline 90 % of control | dose: 64.0 mg/kg/injection, schedule: Q04DX003 (ip), vehicle: Klucel (hydroxypropylcellulose) (HPC) 100 % of control | dose: 64.0 mg/kg/injection, schedule: Q08DX002 (ip), vehicle: Klucel (hydroxypropylcellulose) (HPC) 91 % of control | dose: 128.0 mg/kg/injection, schedule: Q01DX001 (ip), vehicle: Klucel (hydroxypropylcellulose) (HPC) 100 % of control | dose: 128.0 mg/kg/injection, schedule: Q01DX001 (oral), vehicle: Klucel (hydroxypropylcellulose) (HPC) 100 % of control | dose: 128.0 mg/kg/injection, schedule: Q01DX001 (sc), vehicle: Klucel (hydroxypropylcellulose) (HPC) 100 % of control | dose: 128.0 mg/kg/injection, schedule: Q04DX003 (ip), vehicle: Klucel (hydroxypropylcellulose) (HPC) 100 % of control | dose: 128.0 mg/kg/injection, schedule: Q08DX002 (ip), vehicle: Klucel (hydroxypropylcellulose) (HPC) 100 % of control
